These results are taken from PubChem BioAssay AID248 (DTP/NCI, 2004).

This experiment concerns L1210 leukemia ip in BDF1 mice, survival T/C. As to the kind of experiment: NCI In Vivo Anticancer Drug Screen. Data for tumor model L1210 Leukemia (intraperitoneal) in B6D2F1 (BDF1) mice. The note with it: endpoint: mean survival time, higher = longer survival. An outline of the steps: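 Each compound was tested against a transplantable tumor grown in mice. The endpoint was survival, with treated animals benchmarked against vehicle controls as a simple ratio.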

Where [1] appears, read: dose: 100.0 mg/kg/injection, schedule: Q04DX002 (ip), vehicle: Klucel (hydroxypropylcellulose) (HPC).
Setting [2] is: dose: 200.0 mg/kg/injection, schedule: Q04DX002 (ip), vehicle: Klucel (hydroxypropylcellulose) (HPC).
The mark [3] stands for this setting: dose: 400.0 mg/kg/injection, schedule: Q04DX002 (ip), vehicle: Klucel (hydroxypropylcellulose) (HPC).
Setting [4] is: dose: 100.0 mg/kg/injection, schedule: Q01DX009 (ip), vehicle: Klucel (hydroxypropylcellulose) (HPC).
[5] abbreviates: dose: 100.0 mg/kg/injection, schedule: Q04DX003 (ip), vehicle: Klucel (hydroxypropylcellulose) (HPC).
Where [6] appears, read: dose: 200.0 mg/kg/injection, schedule: Q01DX009 (ip), vehicle: Klucel (hydroxypropylcellulose) (HPC).
Setting [7] is: dose: 200.0 mg/kg/injection, schedule: Q04DX003 (ip), vehicle: Klucel (hydroxypropylcellulose) (HPC).
Setting [8] is: dose: 400.0 mg/kg/injection, schedule: Q01DX009 (ip), vehicle: Klucel (hydroxypropylcellulose) (HPC).
Where [9] appears, read: dose: 400.0 mg/kg/injection, schedule: Q04DX003 (ip), vehicle: Klucel (hydroxypropylcellulose) (HPC).
The mark [10] stands for this setting: dose: 100.0 mg/kg/injection, schedule: Q01DX009 (ip), vehicle: saline.
The mark [11] stands for this setting: dose: 200.0 mg/kg/injection, schedule: Q01DX009 (ip), vehicle: saline.
Setting [12] is: dose: 400.0 mg/kg/injection, schedule: Q01DX009 (ip), vehicle: saline.
The mark [13] stands for this setting: dose: 100.0 mg/kg/injection, schedule: Q04DX003 (ip), vehicle: saline.
The mark [14] stands for this setting: dose: 200.0 mg/kg/injection, schedule: Q04DX003 (ip), vehicle: saline.
[15] abbreviates: dose: 400.0 mg/kg/injection, schedule: Q04DX003 (ip), vehicle: saline.
[16] abbreviates: dose: 100.0 mg/kg/injection, schedule: Q01DX009 (ip), vehicle: saline with Tween-80.
The mark [17] stands for this setting: dose: 200.0 mg/kg/injection, schedule: Q01DX009 (ip), vehicle: saline with Tween-80.
[18] abbreviates: dose: 400.0 mg/kg/injection, schedule: Q01DX009 (ip), vehicle: saline with Tween-80.
Setting [19] is: dose: 100.0 mg/kg/injection, schedule: Q04DX003 (ip), vehicle: saline with Tween-80.
[20] abbreviates: dose: 200.0 mg/kg/injection, schedule: Q04DX003 (ip), vehicle: saline with Tween-80.
The mark [21] stands for this setting: dose: 400.0 mg/kg/injection, schedule: Q04DX003 (ip), vehicle: saline with Tween-80.
The mark [22] stands for this setting: dose: 100.0 mg/kg/injection, schedule: Q01DX001 (ip), vehicle: saline.
The mark [23] stands for this setting: dose: 200.0 mg/kg/injection, schedule: Q01DX001 (ip), vehicle: saline.
[24] abbreviates: dose: 400.0 mg/kg/injection, schedule: Q01DX001 (ip), vehicle: saline.
Where [25] appears, read: dose: 50.0 mg/kg/injection, schedule: Q01DX009 (ip), vehicle: saline.

Each structure is given as a SMILES string. Several values for one entry are separate records, joined by “and”; a condition that tells them apart may be missing. Identical values can stand only once. Toxic doses and inconclusive results are not listed.

In the case of `COc1cccc(-c2nc3ccccc3s2)c1OC`, the T/C runs as follows: (dose: 25.0 mg/kg/injection, schedule: Q04DX003 (ip), vehicle: DMSO) 88 % of control; (dose: 50.0 mg/kg/injection, schedule: Q04DX003 (ip), vehicle: DMSO) 95 % of control; (dose: 100.0 mg/kg/injection, schedule: Q04DX003 (ip), vehicle: DMSO) 92 % of control and 96 % of control.

Regarding `O/N=C1\c2ccccc2-c2cc(Br)ccc21`, the T/C reads like this: (dose: 100.0 mg/kg/injection, schedule: Q01DX001 (ip), vehicle: carboxymethylcellulose (CMC)) 95 % of control; (dose: 200.0 mg/kg/injection, schedule: Q01DX001 (ip), vehicle: carboxymethylcellulose (CMC)) 95 % of control; (dose: 400.0 mg/kg/injection, schedule: Q01DX001 (ip), vehicle: carboxymethylcellulose (CMC)) 90 % of control.

In the case of `Cc1ccc(Cl)cc1NC(=O)C(C)Oc1ccccc1` (centres undefined), the T/C is, setting by setting: under setting [1], 89 % of control; under setting [2], 89 % of control; under setting [3], 92 % of control.

For the compound `CC12CC(Br)C(Br)CC1(C)O2` (centres undefined), the T/C (dose: 25.0 mg/kg/injection, schedule: Q04DX002 (ip), vehicle: gum acacia) is 96 % of control; the T/C (dose: 50.0 mg/kg/injection, schedule: Q04DX002 (ip), vehicle: gum acacia) is 100 % of control; the T/C (dose: 100.0 mg/kg/injection, schedule: Q04DX002 (ip), vehicle: gum acacia) is 104 % of control.

As for `COc1cccc(CBr)c1-c1c(CBr)cccc1OC`, the T/C by setting is: under setting [1], 94 % of control; under setting [2], 110 % of control; under setting [3], 94 % of control.

For the compound `CCCCCCCCCCCCNC(=O)C[N+](C)(C)Cc1ccc2c(c1)CCCC2`, the T/C by setting is: (dose: 2.5 mg/kg/injection, schedule: Q01DX009 (ip), vehicle: saline with Tween-80) 106 % of control; (dose: 5.0 mg/kg/injection, schedule: Q01DX009 (ip), vehicle: saline with Tween-80) 94 % of control.

On to `O=S(=O)(Nc1cccc(C(F)(F)F)c1)c1ccccc1`, for which the T/C was 106 % of control under setting [4]; 98 % of control under setting [5]; 107 % of control under setting [6]; 97 % of control under setting [7]; 101 % of control under setting [8]; 95 % of control under setting [9].

With `O=S([O-])c1ccc(Cl)cc1.O=S([O-])c1ccc(Cl)cc1.[Zn+2]`, the T/C reads like this: (dose: 75.0 mg/kg/injection, schedule: Q01DX001 (ip), vehicle: saline) 101 % of control; (dose: 150.0 mg/kg/injection, schedule: Q01DX001 (ip), vehicle: saline) 101 % of control; (dose: 300.0 mg/kg/injection, schedule: Q01DX001 (ip), vehicle: saline) 110 % of control.

As for `c1ccc(C2CCCCCC2)cc1`, the T/C reads like this: under setting [10], 104 % of control; under setting [11], 95 % of control; under setting [12], 90 % of control.

`CC(=O)Oc1cccc2c1C(=O)c1ccccc1C2=O`: the T/C is 103 % of control under setting [10]; 103 % of control under setting [13]; 103 % of control under setting [11]; 97 % of control under setting [14]; 104 % of control under setting [12]; 103 % of control under setting [15].

As for `COC1OC2COc3ccccc3OC2C(NC(N)=O)C1O` (centres undefined), the T/C is 97 % of control under setting [16], 100 % of control under setting [17] and 91 % of control under setting [18].

On to `N#CC/C(C#N)=C/OC(=O)c1ccc(Cl)cc1`, for which the T/C is 118 % of control under setting [4], 124 % of control under setting [6] and 115 % of control under setting [8].

`Cc1ccc2c(=O)n(C)c(=O)n(C)c2n1`: the T/C under setting [1] is 106 % of control, the T/C under setting [2] was 106 % of control and the T/C under setting [3] was 106 % of control.

Turning to `CCOC(=O)C(=Cc1c[nH]c2ccccc12)C(=O)OCC`, the T/C by setting is: under setting [16], 108 % of control; under setting [19], 96 % of control; under setting [17], 90 % of control; under setting [20], 96 % of control; under setting [18], 92 % of control; under setting [21], 96 % of control.

In the case of `NC(=S)N/N=C/c1cc2c3c(c1)CCCN3CCC2`, the T/C is 109 % of control under setting [19], 103 % of control under setting [20] and 103 % of control under setting [21].

For `O=C(C1C2C=CC(CC2)C1C(=O)N1CCOCC1)N1CCOCC1` (centres undefined), the T/C by setting is: under setting [13], 100 % of control; under setting [14], 96 % of control; under setting [15], 96 % of control.

With `O=C(O)CSCc1nc2ccccc2[nH]1`, the T/C under setting [16] was 92 % of control; the T/C under setting [19] is 101 % of control; the T/C under setting [17] was 100 % of control; the T/C under setting [20] was 92 % of control; the T/C under setting [18] was 96 % of control; the T/C under setting [21] is 95 % of control.

As for `COc1cc(/C=C(/NC(=O)c2ccccc2)C(=O)O)ccc1O`, the T/C by setting is: under setting [22], 94 % of control; under setting [13], 96 % of control; under setting [23], 89 % of control; under setting [14], 97 % of control; under setting [24], 96 % of control; under setting [15], 88 % of control.

Turning to `NOCc1csc(Nc2ccccc2)n1`, the T/C is 100 % of control under setting [13] and 88 % of control under setting [14].

For `Cc1cc(C)c(NC(=O)NCCCl)cc1C`, the T/C is 104 % of control under setting [5], 89 % of control under setting [7] and 93 % of control under setting [9].

On to `Cc1ccnc(NC(c2ccccc2)c2ccc3cccnc3c2O)c1` (centres undefined), for which the T/C runs as follows: under setting [22], 103 % of control; under setting [23], 95 % of control; under setting [24], 86 % of control.

Turning to `COc1ccc(-c2c(C)c(C)[nH]c(=O)c2C#N)c(OCc2ccccc2)c1OC`, the T/C is, setting by setting: under setting [22], 101 % of control; under setting [23], 101 % of control; under setting [24], 93 % of control.

With `CCCOC(C(=O)OC1CCN(C)CC1)(c1ccccc1)c1ccccc1`, the T/C (dose: 12.5 mg/kg/injection, schedule: Q01DX009 (ip), vehicle: saline) is 98 % of control; the T/C (dose: 25.0 mg/kg/injection, schedule: Q01DX009 (ip), vehicle: saline) was 102 % of control; the T/C under setting [25] was 94 % of control.

For the compound `O=C(Nc1ccccc1F)OCCc1ccccn1`, the T/C is 102 % of control under setting [1], 105 % of control under setting [2] and 91 % of control under setting [3].

Turning to `COc1cc(OCc2ccccc2)c([N+](=O)[O-])cc1OC`, the T/C under setting [13] is 116 % of control, the T/C under setting [14] is 124 % of control and the T/C under setting [15] is 112 % of control.

Consider `CN(Cc1cnc2nc(N)nc(N)c2n1)c1ccc(C(=O)NC(CCC(=O)OC(C)(C)C)C(=O)OC(C)(C)C)cc1` (centres undefined), for which the T/C was 124 % of control (dose: 25.0 mg/kg/injection, schedule: Q01DX009 (ip), vehicle: Klucel (hydroxypropylcellulose) (HPC)); 88 % of control (dose: 50.0 mg/kg/injection, schedule: Q01DX009 (ip), vehicle: Klucel (hydroxypropylcellulose) (HPC)); 159 % of control under setting [5].

For the compound `c1ccc(/C(=N\Nc2nc3ccccc3s2)c2ccncc2)cc1`, the T/C under setting [4] was 89 % of control, the T/C under setting [6] was 91 % of control and the T/C under setting [8] is 96 % of control.

On to `O=C(O)c1ccccc1C(c1ccccc1)c1ccccc1`, for which the T/C runs as follows: under setting [19], 98 % of control; under setting [20], 93 % of control; under setting [21], 98 % of control.

For the compound `Cc1ccc(S(=O)(=O)NC(=O)NCCCS(C)=O)cc1` (centres undefined), the T/C was 100 % of control under setting [19], 102 % of control under setting [20] and 100 % of control under setting [21].

As to `Cc1cnc(=S)[nH]c1N`, the T/C reads like this: under setting [25], 99 % of control; under setting [10], 95 % of control; under setting [13], 101 % of control; under setting [11], 99 % of control; under setting [14], 105 % of control.

For `CC1CCC2C(C1)N(C(C)C)OC2(C)C` (centres undefined), the T/C (dose: 50.0 mg/kg/injection, schedule: Q01DX009 (ip), vehicle: saline with Tween-80) is 104 % of control; the T/C under setting [16] is 98 % of control; the T/C under setting [19] was 108 % of control; the T/C under setting [20] was 102 % of control.
